Patent US5700804A, “Pharmaceutical compounds” (Xenova Limited, priority 1992, dated 1997)

Biological target: PAI-1 (Homo sapiens, UniProt P05121)
Assay: PAI chromogenic substrate assay (first S2251 assay, tPA/plasminogen system)
Assay type: biochemical
Summary of the method: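 Compound preincubated with PAI-1, then added to a tPA/plasminogen system; residual tPA activity generates plasmin, which cleaves chromogenic substrate S2251, releasing p-nitroaniline read at 405 nm.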

PAI-1, sequence (P05121 24-402): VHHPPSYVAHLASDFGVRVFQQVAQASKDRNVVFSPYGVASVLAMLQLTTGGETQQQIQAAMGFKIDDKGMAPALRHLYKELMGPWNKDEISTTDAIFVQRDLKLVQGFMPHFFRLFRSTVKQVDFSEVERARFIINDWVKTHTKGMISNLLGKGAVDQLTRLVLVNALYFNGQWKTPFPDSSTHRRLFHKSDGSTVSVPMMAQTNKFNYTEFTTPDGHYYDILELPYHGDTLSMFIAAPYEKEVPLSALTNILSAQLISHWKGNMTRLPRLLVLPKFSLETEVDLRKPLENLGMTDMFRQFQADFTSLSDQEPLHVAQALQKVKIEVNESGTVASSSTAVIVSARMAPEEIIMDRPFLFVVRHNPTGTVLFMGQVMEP

Structure (SMILES)	Inhibition of PAI-1 in the first S2251 chromogenic substrate assay (Concentration 6.25 μm) [%]	Inhibition of PAI-1 in the first S2251 chromogenic substrate assay (Concentration 12.5 μm) [%]	Inhibition of PAI-1 in the first S2251 chromogenic substrate assay (Concentration 25 μm) [%]	Inhibition of PAI-1 in the first S2251 chromogenic substrate assay (Concentration 50 μm) [%]	Inhibition of PAI-1 in the first S2251 chromogenic substrate assay (Concentration 100 μm) [%]	Inhibition of PAI-1 in the first S2251 chromogenic substrate assay (Concentration 7.5 μm) [%]	Inhibition of PAI-1 in the first S2251 chromogenic substrate assay (Concentration 15 μm) [%]	Inhibition of PAI-1 in the first S2251 chromogenic substrate assay (Concentration 30 μm) [%]	Inhibition of PAI-1 in the first S2251 chromogenic substrate assay (Concentration 60 μm) [%]
COc1ccc(/C=c2\[nH]c(=O)/c(=C/c3ccc(NC(=O)CO)cc3)[nH]c2=O)cc1 [Compound 88, (3Z,6Z)-3-(4-Hydroxyacetylaminobenzylidene)-6-(4-methoxybenzylidene)-2,5-piperazinedione]	0	40	60	49	41				
CCOC(=O)CCCCC(=O)NCc1ccc(/C=c2\[nH]c(=O)/c(=C/c3ccccc3)[nH]c2=O)cc1 [Compound 95]	10	16	45	71	69				
CC(=O)Nc1ccc(/C=c2\[nH]c(=O)/c(=C/c3ccc(OC(=O)C(C)(C)C)cc3)[nH]c2=O)cc1 [Compound 82, (3Z,6Z)-3-(4-Acetamidobenzylidene)-6-(4-trimethylacetoxybenzylidene)-2,5-piperazinedione]		1	1	3	80				
O=c1[nH]c(=Cc2ccccc2)c(=O)[nH]c1=Cc1ccccc1 [Compound 22, 3,6-Dibenzylidene-2,5-piperazinedione]	0	0	1	2	61				
CC(=O)SCc1cccc(/C=c2\[nH]c(=O)/c(=C/c3ccccc3)[nH]c2=O)c1 [Compound 61, (3Z,6Z)-6-Benzylidene-3-(3-thioacetoxymethylbenzylidene)-2,5-piperazinedione]		26	69	88	83				
COc1ccc(/C=c2\[nH]c(=O)/c(=C/c3ccc(NC(=O)COC(C)=O)cc3)[nH]c2=O)cc1 [Compound 87, (3Z,6Z)-3-(4-Acetoxyacetylaminobenzylidene)-6-(4-methoxybenzylidene)-2,5-piperazinedione]	0	28	70	81	78				
CC(=O)Oc1ccc(/C=c2\[nH]c(=O)/c(=C/c3ccccc3)[nH]c2=O)cc1 [Compound 23, (3Z,6Z)-3-(4-Acetoxybenzylidene)-6-benzylidene-2,5-piperazinedione]						0	0	17	65
COc1ccc(/C=c2\[nH]c(=O)/c(=C/c3ccc(CS(C)(=O)=O)cc3)[nH]c2=O)cc1 [Compound 60, (3Z,6Z)-3-(4-Methoxybenzylidene)-6-(4-methylsulfonylmethylbenzylidene)-2,5-piperazinedione]		1	25	52	62				
COC(=O)Nc1ccc(/C=c2\[nH]c(=O)/c(=C/c3ccc(OC)cc3)[nH]c2=O)cc1 [Compound 83, (3Z,6Z)-3-(4-Methoxybenzylidene)-6-(4-methoxycarbonylaminobenzylidene)-2,5-piperazinedione]		1	1	1	56				
COC(=O)c1cccc(/C=c2\[nH]c(=O)/c(=C/c3ccccc3)[nH]c2=O)c1 [Compound 62, 3-((3Z,6Z)-6-Benzylidene-2,5-dioxopiperazin-3-ylidene)methylbenzoic acid, methyl ester]		36	13	33	83				
COC(=O)CCCCOc1ccc(/C=c2\[nH]c(=O)/c(=C/c3ccccc3)[nH]c2=O)cc1 [Compound 96, 5-[4-((3Z,6Z)-6-Benzylidene-2,5-dioxopiperazin-3-ylidene)methylphenoxy]pentanoic acid, methyl ester]	5	29	47	75	77				
CC(=O)SCc1ccc(/C=c2\[nH]c(=O)/c(=C/c3ccccc3)[nH]c2=O)cc1 [Compound 76, (3Z,6Z)-6-Benzylidene-3-(4-thioacetoxymethylbenzylidene)-2,5-piperazinedione]	2	5	50	75	66				
COc1ccc(/C=c2\[nH]c(=O)/c(=C/c3ccccc3[N+](=O)[O-])[nH]c2=O)cc1 [Compound 28, (3Z,6Z)-6-(4-Methoxybenzylidene)-3-(2-nitrobenzylidene)-2,5-piperazinedione]	0	1	45	74	71				
